# Experimental data as given in US12161695B2 (priority 2018, dated 2024).
# “Also recorded” adds a separate entry of the source. Like-named read-outs stand apart in the source and are kept apart here. Where no end group is shown, it is not given here.
# How the values were obtained:
# human islets = assay: glucose-stimulated insulin secretion in human islets; assay type: cell-based
# Experimental: The incubation medium was subsequently collected, the islets sonicated briefly (1-2 periods of 10 s) in acidic ethanol and frozen overnight. Samples from the medium and the islets were appropriately diluted and analyzed in duplicates for insulin using an immunoassay kit from Mesoscale Discovery (Rockville, MD, USA). Secretion was normalized to insulin content and expressed in relation to that at 20 mM glucose. In some experiments, the islets were placed in a closed 10-μL Teflon tubing perfusion. The chamber was perfused with buffer at a rate of 60 μL/min (AutoMate Scientific, Berkeley, CA). […] Three fractions were collected for each condition and analyzed for insulin. The results are presented as one data point per condition, which represents the average of the last two fractions at that condition. The first fraction was excluded since it was influenced by the preceding condition.
# iGABAARI = assay: whole-cell patch-clamp single-channel currents in β cells of intact human islets, iGABAARI; assay type: cell-based; settings: for GABA-activated single-channel conductance: 100 nM GABA; for reduction of Ka for GABA activation in T2D donors: T2D vs ND donors
# Experimental: (§1) Human islets were generously provided by the Nordic Network for Clinical Islet Transplantation, supported by EXODIAB and the Juvenile Diabetes Research Foundation. All procedures were approved by the regional ethics committee in Uppsala and informed consent obtained by appropriate measures from donors or their relatives. […] The islets were then hand-picked and cultured free-floating in CMRL 1066 (ICN Biomedicals, Costa Mesa, CA, USA) supplemented with 10 mM HEPES, 2 mM L-glutamine, 50 jig/ml gentamicin, 0.25 jig/ml fungizone (GIBCO, BRL, Gaithersburg, MD, USA), 20 jig/ml ciprofloxacin (Bayer Healthcare, Leverkusen, Germany), and 10 mM nicotinamide at 37° C. in humidified atmosphere containing 5% CO2, vol/vol and used in the experiments from second day of incubation up to 10 days of culturing.
# (§2) The whole-cell patch-clamp configuration was obtained on intact islets using the blind patch-clamp technique (Hamill et al., 1981; Jin et al., 2011; Neher and Sakmann, 1976) and single-channel currents were recorded at room temperature (20-22° C.) or at 34° C. The single intact islet was held by the holding pipette and approached by the recording pipette from the other side (see FIG. 1a). The holding and recording pipettes were made from borosilicate glass. During experiments, the pancreatic islets were perfused with the extracellular solution (mM): 137 NaCl, 5.6 KCl, 2.6 CaCl2, 1.2 MgCl2, 10 HEPES and 20 glucose (pH 7.4 using NaOH) at the rate of 3 mL/min. The intracellular solution consisted of (mM): 135 CsCl, 30 CsOH, 1 MgCl2, 10 EGTA, 5 HEPES and 3 Mg-ATP (pH 7.2 with HCl). Drugs were purchased from Sigma-Aldrich (Steinheim, Germany) or Ascent Scientific (Bristol, UK). Pentobarbital, propofol, GLP-1 and the GABAAR antagonist SR95531 were dissolved in the extracellular solution. Diazepam, zolpidem and the GABAAR antagonist picrotoxin stock solutions were made in dimethyl sulfoxide (DMSO) and then dissolved in the extracellular solution. […] Recordings were done using an Axopatch 200B amplifier, filtered at 2 kHz, digitized on-line at 10 kHz using an analog-to-digital converter and Clampex 10.5 (Molecular Devices, CA, USA) software. The access resistance was monitored and if it changed by more than 25%, the recording was rejected. The single-channel parameters (amplitude, frequency/opening rate, conductance, open probability Po, mean current Imean and mean open time To) were analyzed by Channel3 (Nicholas Laver, Derek Laver, the University of Newcastle, Australia) and Clampfit 10.5 (Molecular Devices, USA). We used a simplified version of a model, previously established by Jones and Westbrook (Jones and Westbrook, 1995) to describe the activation of GABAA receptors (see FIG. 2a model scheme). Simulations of opening rate and mean open time were generated from this theoretical model using the ‘Q-matrix’ method of Colquhoun and Hawkes (Colquhoun and Hawkes, 1981, 1982). We accounted for the effects of missed events due to filtering using the ‘effective rate constant’ method of Blatz and Magleby (Blatz and Magleby, 1986) incorporating an event dead-time of 0.1 ms.
# [1] = cited from earlier work
# iGABAARII = assay: whole-cell patch-clamp single-channel currents in β cells of intact human islets, iGABAARII; assay type: cell-based
# Experimental: as §1, §2
# [2] = system: insulin granule exocytosis in human islet cells; assay: insulin granule exocytosis imaging by TIRF microscopy; assay type: cell-based
# Experimental: The islets were dissociated into single cells in 0.0025% trypsin in cell dissociation buffer (Hank's based) for 3-5 minutes. Cells were washed once in serum-containing medium, plated onto 22-mm polylysine-coated coverslips and allowed to settle overnight. Adenovirus particles adNPY-Venus (Tsuboi et al., 2006) or adNPY-mCherry (Meur et al., 2010) was added and cells were imaged 24-36 hours later. Cells selected for experiments expressed the granule marker and appeared healthy. Cells were imaged in a standard solution containing (mM): 138 NaCl, 5.6 KCl, 1.2 MgCl2, 2.6 CaCl2, 20 D-glucose, 5 HEPES (pH 7.4 with NaOH) (Barg et al., 2002; Gandasi and Barg, 2014). For depolarization dependent exocytosis experiments, glucose was 10 mM and the solution supplemented with 2 μM forskolin and 200 μM diazoxide, a K^+-ATP-channel opener that prevents glucose-dependent depolarization. Exocytosis was then evoked with high K^+ solution (75 mM KCl equimolarly replacing NaCl). High K^+ was applied by computer-timed local pressure ejection through a glass pipette similar to those used for patch clamp. All experiments were carried out at ˜32° C. Cells were imaged using a custom-built lens-type total internal reflection (TIRF) microscope based on an Axiovert 135 microscope with a 100×/1.45 objective (Carl Zeiss). Excitation was from a DPSS laser at 491 (Cobolt, Stockholm, Sweden), controlled with an acousto-optical tunable filter (AA-Opto, France) and using dichroic Di01-R488/561 (Semrock) and emission filter FF01-523/610 (Semrock). Scaling was 160 nm per pixel and exposure time 100 ms per frame at 10 frames/s. Exocytosis events were found by eye. The moment of exocytosis was defined as the first significant change (2 standard deviations) from the pre-exocytosis baseline. This definition applied to both types of events, with or without preceding flash. The decay time was then defined as the time from exocytosis until the signal reached less than one third of the amplitude of the event. Traces were read out as DF, defined as average fluorescence in a 0.5 μm circle minus the average fluorescence in a surrounding annulus of 0.8 μm. The point of exocytosis was calculated by fitting the granule fluorescence during exocytosis with a discontinuous function (Eq 1), which assumes constant fluorescence before fusion, an inverted exponential decay just after fusion, and finally exponential decay during content release:
# where t is time; c is average fluorescence in a 0.48 μm wide circle at the granule site; A1, A2 and A3 are the fluorescence values at the plateaus; τ1 and τ2 are the decay constants for the fluorescence increase after fusion and content release; and t1 and t2 are the times of fusion and release, respectively.
# [3] = system: iGABAARs in human pancreatic islet β cells; assay type: cell-based
# Experimental: as §1, §2
# [4] = activated by interstitial GABA, room temperature
# [5] = 20 mM glucose, with GABA, one T2D donor
# [6] = diazepam 1 μM, propofol 10 μM, pentobarbital 100 μM, zolpidem 200 nM
# [7] = diazepam 1 μM, propofol 10 μM, pentobarbital 100 μM, zolpidem 100 or 200 nM
# [8] = GLP-1 application and following washout, n=5
compound,measurement,setting,value
"NCCCC(=O)O [GABA, gamma-aminobutyric acid]",insulin secretion normalized to the 20 mM glucose response,"human islets; 100 nM GABA, 10 ND donors",1.6±0.2
same,increase of insulin secretion,"human islets; 100 nM GABA, 10 ND donors, average",approximately 60%
same,insulin secretion normalized to the 20 mM glucose response,"human islets; GABA, islets from three ND donors",0.7±0.01
same,GABA-activated single-channel conductance,iGABAARI; islets from ND donors,41±3 pS
same,GABA-activated single-channel conductance,iGABAARI; islets from T2D donors,55±5 pS
same,GABA concentration at maximal rate (frequency) of channel openings,iGABAARI; ND donors,100 nM
same,reduction of Ka for GABA activation in T2D donors,iGABAARI; 34° C.,~3 fold
same,reduction of Ka for GABA activation in T2D donors,iGABAARI; RT,6 fold
same,cord conductance,iGABAARI; [4],37 pS
same,time to maximum blood serum level of GABA,[1]; after administration in connection with ingestion of food,approximately 45 minutes
same,time after which blood serum levels of GABA markedly decrease,[1]; from the administration of GABA,approximately 90 minutes
same,GABA concentration at peak opening rate,"iGABAARII; ND donors, 34° C.",1 µM
same,increase of Ka on raising the temperature to 34° C.,"iGABAARII; ND donors, 34° C. vs RT",23 fold
same,GABA concentration at peak opening rate,"iGABAARII; ND donors, room temperature",0.1 µM
same,reduction of Ka for GABA activation in T2D donors,"iGABAARII; T2D vs ND donors, 34° C.",300 fold
same,cord conductance,iGABAARII; [4],76 pS
same,exocytosis,"[2]; 20 mM glucose >10 min, GABA present, ND donors",~5 granules/min
same,exocytosis events per area and time,"[2]; 20 mM glucose >10 min, GABA present, two ND donors, n=6",0.095±0.01 10^−3·tm^−2·s^−1
same,exocytosis,[2]; [5],~1 granules/min
same,exocytosis events per area and time,[2]; [5],0.019±0.008 10^−3·tm^−2·s^−1
same,exocytosis for an average-sized cell,"[2]; 75 mM K+ depolarization, 100 nM GABA",~150 granules/min
same,exocytosis events per area and time,"[2]; 75 mM K+ depolarization, 100 nM GABA, n=7",2.5±0.6 10^−3·tm^−2·s^−1
same,loss of NPY-Venus from individual granules (decay constant),"[2]; 75 mM K+ depolarization, presence of GABA",0.86 ± 0.09 s
same,GABA concentration above which receptors are desensitized and stop working,[3],exceeding 1000 nM
same,optimal GABA concentrations for active iGABAARs,[3],100 nM to submicromolar
same,effect on mean current (Imean),"[3]; 100 nM GABA, Vp=−70 mV, 34° C.",significantly (P<0.05) enhanced
same,effect on open probability (Po),"[3]; 100 nM GABA, Vp=−70 mV, 34° C.",significantly (P<0.05) enhanced
same,GABA concentration at which GABA-activated Cl− currents were evoked,[3]; GABA applied 1 to 10^4 nM,> 10 nM
same,effect on mean open times To,[3]; islets from ND and T2D donors,did not affect
same,effect on rate (frequency) of channel openings,[3]; islets from ND and T2D donors,increased
same,GABA concentration at which channels start to desensitize,[3]; kinetic model,about 1 μM
Br.COc1ccc(-c2ccc(=N)n(CCCC(=O)O)n2)cc1 [SR95531],inhibition of iGABAAR (GABA-activated) currents,[3],inhibited
CN1C(=O)CN=C(c2ccccc2)c2cc(Cl)ccc21 [diazepam],effect on mean single-channel current (Imean),[3]; [6],significantly increased
same,effect on opening frequency of iGABAARs,[3]; [6],significantly increased
same,modulation of iGABAAR-mediated single-channel currents,[3]; [7],enhanced
"CCCC(C)C1(CC)C(=O)NC(=O)NC1=O (stereo not shown) [pentobarbital, 5-ethyl-5-(1-methylbutyl)-barbiturate]",effect on mean single-channel current (Imean),[3]; [6],significantly increased
same,effect on opening frequency of iGABAARs,[3]; [6],significantly increased
same,modulation of iGABAAR-mediated single-channel currents,[3]; [7],enhanced
CC(C)c1cccc(C(C)C)c1O [propofol],effect on mean single-channel current (Imean),[3],significantly increased
same,effect on opening frequency of iGABAARs,[3],significantly increased
same,modulation of iGABAAR-mediated single-channel currents,[3],enhanced
Cc1ccc(-c2nc3ccc(C)cn3c2CC(=O)N(C)C)cc1 [zolpidem],effect on mean single-channel current (Imean),[3]; [6],not
same,effect on opening frequency of iGABAARs,[3]; [6],not
same,modulation of iGABAAR-mediated single-channel currents,[3]; [7],did not modulate and not
"GLP-1: metabolic, gastrointestinal peptide hormone secreted by L-cells in the gut; enhances insulin secretion (HAEGTFTSDVSSYLEGQAAKEFIAWLVKGR; ends and bridges not checked; UniProt P01275 98-127, looked up) [reference compound]",effect on opening frequency of iGABAARI channels,"iGABAARI; GLP-1 50 pM, n=6",significantly increased
same,effect on single-channel conductance,iGABAARI; [8],did not significantly change
same,opening frequency / current enhancement after GLP-1 washout,iGABAARI; post GLP-1 vs before GLP-1 application,"remained, albeit at a reduced level; also recorded: remained significantly higher"
same,effect on single-channel conductance,iGABAARII; [8],did not significantly change
same,time β-cells remember the GLP-1 activation after GLP-1 is no longer in circulation,[3]; GABA signalling stays elevated in absence of GLP-1,up to 30 minutes
same,effect on iGABAAR-mediated single-channel currents,[3]; GLP-1 50 pM in the presence of GABA 10 nM,potentiated
picrotoxin [reference compound],effect on the GABA-induced change of insulin secretion,"human islets; picrotoxin added with GABA, ND donors",reversed
same,inhibition of iGABAAR (GABA-activated) currents,[3]; antagonist 100 μM where stated,inhibited
